Measurements reported in article PMC6261253 (Nature, 2018).

T1: DHX36-AAA (Bos taurus, UniProt Q05B79, K192A/K193A/K194A)
T1 sequence (Q05B79 55-1010 K192A/K193A/K194A): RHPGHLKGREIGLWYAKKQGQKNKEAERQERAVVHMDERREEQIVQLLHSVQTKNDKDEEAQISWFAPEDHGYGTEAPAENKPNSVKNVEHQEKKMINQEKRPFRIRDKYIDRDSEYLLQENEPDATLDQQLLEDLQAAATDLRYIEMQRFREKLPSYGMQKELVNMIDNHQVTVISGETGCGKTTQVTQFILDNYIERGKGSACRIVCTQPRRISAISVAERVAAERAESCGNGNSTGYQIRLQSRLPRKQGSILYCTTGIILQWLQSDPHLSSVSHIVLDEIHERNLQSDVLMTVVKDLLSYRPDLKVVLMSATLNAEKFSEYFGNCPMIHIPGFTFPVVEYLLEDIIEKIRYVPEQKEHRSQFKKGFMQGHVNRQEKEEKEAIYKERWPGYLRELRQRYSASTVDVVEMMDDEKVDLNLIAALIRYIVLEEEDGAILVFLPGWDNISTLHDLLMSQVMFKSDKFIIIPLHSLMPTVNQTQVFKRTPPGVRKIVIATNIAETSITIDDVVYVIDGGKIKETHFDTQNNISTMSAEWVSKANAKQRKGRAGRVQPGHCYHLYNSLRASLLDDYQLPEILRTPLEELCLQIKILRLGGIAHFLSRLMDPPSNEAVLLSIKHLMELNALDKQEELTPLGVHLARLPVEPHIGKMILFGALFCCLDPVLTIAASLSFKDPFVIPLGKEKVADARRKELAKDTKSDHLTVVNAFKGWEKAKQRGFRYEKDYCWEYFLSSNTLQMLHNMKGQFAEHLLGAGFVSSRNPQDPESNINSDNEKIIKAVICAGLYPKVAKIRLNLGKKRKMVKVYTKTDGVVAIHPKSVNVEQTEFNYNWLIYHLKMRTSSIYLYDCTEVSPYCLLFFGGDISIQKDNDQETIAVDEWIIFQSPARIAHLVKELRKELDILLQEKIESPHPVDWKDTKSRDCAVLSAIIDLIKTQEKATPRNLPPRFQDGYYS

T2: DHX36-DSM (crystallization construct) (Bos taurus, UniProt Q05B79 55-1010, E435Y;E436Y;K437Y;K752A;D753A;K755A;del1-54;del111-159)
T2 sequence: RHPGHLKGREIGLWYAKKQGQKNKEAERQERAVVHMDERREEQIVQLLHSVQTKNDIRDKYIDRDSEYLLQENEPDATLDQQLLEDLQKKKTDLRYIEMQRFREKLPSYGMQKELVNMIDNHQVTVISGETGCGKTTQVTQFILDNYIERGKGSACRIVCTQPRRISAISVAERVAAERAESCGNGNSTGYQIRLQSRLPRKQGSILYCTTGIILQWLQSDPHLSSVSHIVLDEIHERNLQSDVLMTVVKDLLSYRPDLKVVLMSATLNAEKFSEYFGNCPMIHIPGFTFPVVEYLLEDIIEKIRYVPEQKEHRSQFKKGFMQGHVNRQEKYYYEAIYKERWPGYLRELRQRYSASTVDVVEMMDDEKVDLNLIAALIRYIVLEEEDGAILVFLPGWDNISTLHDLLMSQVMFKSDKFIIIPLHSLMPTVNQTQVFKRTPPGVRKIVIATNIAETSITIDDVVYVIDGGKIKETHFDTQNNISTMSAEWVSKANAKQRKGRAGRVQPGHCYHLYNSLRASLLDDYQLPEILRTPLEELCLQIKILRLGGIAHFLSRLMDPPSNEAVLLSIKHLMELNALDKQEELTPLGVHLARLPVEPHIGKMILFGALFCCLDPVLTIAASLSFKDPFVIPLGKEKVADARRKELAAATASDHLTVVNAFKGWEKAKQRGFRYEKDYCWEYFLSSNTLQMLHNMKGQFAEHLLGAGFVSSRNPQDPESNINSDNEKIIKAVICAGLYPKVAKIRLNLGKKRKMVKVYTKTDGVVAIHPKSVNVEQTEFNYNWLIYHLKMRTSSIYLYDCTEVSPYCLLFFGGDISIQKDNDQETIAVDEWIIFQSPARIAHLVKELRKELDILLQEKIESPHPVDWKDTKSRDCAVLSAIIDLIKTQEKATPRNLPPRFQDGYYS


Legend:
[1] = molecular target: T1, DHX36-AAA; experiment: single-molecule FRET, helicase dissociation from G-quadruplex DNA; format: biochemical; conditions: ATP added to DHX36-AAA bound to c-Myc G-quadruplex DNA with 3' T9 tail
[2] = molecular target: T2, DHX36-DSM (crystallization construct); experiment: X-ray crystallography

Row | Molecule | single-molecule FRET, helicase dissociation from G-quadruplex DNA [1] | binding result [2]
1 | Nc1ncnc2c1ncn2[C@@H]1O[C@H](COP(=O)(O)OP(=O)(O)OP(=O)(O)O)[C@@H](O)[C@H]1O [ATP] | Addition of ATP (red arrow) while DHX36-AAA is displaying repetitive unfolding activity | 
2 | AGGGTGGGTAGGGTGGGTTTTTTT (structured_DNA) [DNAMyc] |  | binds
